Measurements published in patent US20260207572A1, “METHODS AND COMPOSITIONS FOR TREATMENT OF SUBJECTS WITH HEPATIC IMPAIRMENTS” (ELEVAR THERAPEUTICS, INC., priority 2022, published 2026).

Key:
[1] = Phase 1 study: safety and tolerability; type: in vivo, human
Source text: Safety was monitored through recording of adverse events (AEs), clinical laboratory evaluations (clinical chemistry, hematology, coagulation parameters, and urinalysis), vital sign measurements, 12-lead electrocardiograms (ECGs), and physical examination findings during the study.
Safety measures for this study included AEs, incidence of laboratory abnormalities (based on hematology, clinical chemistry, coagulation, and urinalysis test results), 12-lead ECG parameters, vital sign measurements, and physical examinations.
All adverse events and observed values from clinical laboratory evaluations, 12-lead ECGs, vital sign measurements, and physical examinations were listed and summarized descriptively. No inferential statistical analyses were planned for the safety data.
The condition of each subject was monitored throughout the study. Any AEs and remedial actions required were recorded. The nature, time of onset, duration, and severity were documented, together with the Investigator's opinion of the relationship to drug administration. Any clinically significant abnormalities found during the course of the study were followed up until they returned to normal or could be clinically explained.

CYP2B6 = target: T1, CYP2B6 (Homo sapiens, UniProt P20813); experiment: In vitro CYP phenotyping and metabolism study, recombinant CYP2B6; type: in vitro ADME
T1 sequence (P20813 1-491): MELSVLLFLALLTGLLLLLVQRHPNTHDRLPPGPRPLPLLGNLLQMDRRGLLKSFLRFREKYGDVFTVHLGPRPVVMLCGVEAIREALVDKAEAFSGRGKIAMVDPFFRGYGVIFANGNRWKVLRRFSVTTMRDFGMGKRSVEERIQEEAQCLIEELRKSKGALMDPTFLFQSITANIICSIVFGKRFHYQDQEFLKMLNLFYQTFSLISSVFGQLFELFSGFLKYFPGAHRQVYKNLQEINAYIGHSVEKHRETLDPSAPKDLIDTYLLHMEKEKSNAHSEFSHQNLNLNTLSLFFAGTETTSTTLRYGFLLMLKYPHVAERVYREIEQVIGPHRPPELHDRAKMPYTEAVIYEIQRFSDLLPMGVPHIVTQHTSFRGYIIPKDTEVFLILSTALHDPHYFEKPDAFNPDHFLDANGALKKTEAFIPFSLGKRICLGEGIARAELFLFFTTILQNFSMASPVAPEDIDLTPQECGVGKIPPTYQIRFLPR
Description: (§1) Recently, an in vitro cytochrome (CYP) phenotyping and metabolism study was performed.

CYP2D6 = CYP2D6 (Homo sapiens, UniProt P10635); experiment: In vitro CYP phenotyping and metabolism study, recombinant CYP2D6; type: in vitro ADME
Description: as §1

CYP2C19 = CYP2C19 (Homo sapiens, UniProt P33261); experiment: In vitro CYP phenotyping and metabolism study, recombinant CYP2C19; type: in vitro ADME
Description: as §1

CYP1A2 = target: T2, CYP1A2 (Homo sapiens, UniProt P05177); experiment: In vitro CYP phenotyping and metabolism study, recombinant CYP1A2; type: in vitro ADME
T2 sequence (P05177 1-516): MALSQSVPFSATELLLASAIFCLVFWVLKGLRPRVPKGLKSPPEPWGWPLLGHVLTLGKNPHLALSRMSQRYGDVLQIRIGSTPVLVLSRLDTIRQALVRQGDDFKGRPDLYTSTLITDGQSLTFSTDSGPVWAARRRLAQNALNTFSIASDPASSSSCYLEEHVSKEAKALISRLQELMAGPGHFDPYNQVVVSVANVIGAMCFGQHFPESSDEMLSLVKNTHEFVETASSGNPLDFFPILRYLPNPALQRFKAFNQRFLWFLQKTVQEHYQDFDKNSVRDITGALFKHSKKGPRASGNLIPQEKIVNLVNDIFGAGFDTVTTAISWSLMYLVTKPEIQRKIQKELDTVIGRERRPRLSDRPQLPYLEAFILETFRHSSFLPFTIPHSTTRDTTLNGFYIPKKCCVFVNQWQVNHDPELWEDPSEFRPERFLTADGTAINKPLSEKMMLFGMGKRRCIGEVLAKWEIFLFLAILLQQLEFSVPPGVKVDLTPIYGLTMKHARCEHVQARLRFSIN
Description: as §1

plasma protein = conditions: cited from earlier work
CYP3A4 = CYP3A4 (Homo sapiens, UniProt P08684); experiment: In vitro CYP phenotyping and metabolism study, recombinant CYP3A4; type: in vitro ADME
Description: as §1

CYP2C19, sequence (P33261 whole entry): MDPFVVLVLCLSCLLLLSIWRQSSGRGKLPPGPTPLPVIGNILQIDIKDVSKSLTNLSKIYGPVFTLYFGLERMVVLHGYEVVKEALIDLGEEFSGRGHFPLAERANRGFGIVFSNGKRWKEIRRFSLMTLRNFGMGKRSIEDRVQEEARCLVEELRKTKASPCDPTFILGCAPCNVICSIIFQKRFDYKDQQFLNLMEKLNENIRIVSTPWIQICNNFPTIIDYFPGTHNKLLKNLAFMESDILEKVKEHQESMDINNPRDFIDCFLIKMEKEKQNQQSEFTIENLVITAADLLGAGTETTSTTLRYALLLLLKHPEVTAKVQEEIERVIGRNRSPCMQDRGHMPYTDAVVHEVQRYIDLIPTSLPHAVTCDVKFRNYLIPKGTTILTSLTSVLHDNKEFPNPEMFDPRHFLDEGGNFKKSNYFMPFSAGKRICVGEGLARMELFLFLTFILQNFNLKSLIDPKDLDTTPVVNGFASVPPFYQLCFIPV
CYP3A4, sequence (P08684 whole entry): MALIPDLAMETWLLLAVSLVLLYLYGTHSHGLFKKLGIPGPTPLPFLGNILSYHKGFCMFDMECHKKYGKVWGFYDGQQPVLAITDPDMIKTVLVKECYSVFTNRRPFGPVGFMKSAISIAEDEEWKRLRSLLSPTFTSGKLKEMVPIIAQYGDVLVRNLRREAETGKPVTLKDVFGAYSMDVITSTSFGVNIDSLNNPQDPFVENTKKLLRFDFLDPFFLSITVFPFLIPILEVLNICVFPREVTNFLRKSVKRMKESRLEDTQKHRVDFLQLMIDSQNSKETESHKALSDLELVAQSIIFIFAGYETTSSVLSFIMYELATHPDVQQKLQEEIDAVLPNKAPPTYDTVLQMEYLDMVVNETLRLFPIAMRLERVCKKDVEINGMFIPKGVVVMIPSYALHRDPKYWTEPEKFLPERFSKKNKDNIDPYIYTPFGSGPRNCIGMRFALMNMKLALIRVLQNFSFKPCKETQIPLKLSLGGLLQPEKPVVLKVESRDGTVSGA
CYP2D6, sequence (P10635 whole entry): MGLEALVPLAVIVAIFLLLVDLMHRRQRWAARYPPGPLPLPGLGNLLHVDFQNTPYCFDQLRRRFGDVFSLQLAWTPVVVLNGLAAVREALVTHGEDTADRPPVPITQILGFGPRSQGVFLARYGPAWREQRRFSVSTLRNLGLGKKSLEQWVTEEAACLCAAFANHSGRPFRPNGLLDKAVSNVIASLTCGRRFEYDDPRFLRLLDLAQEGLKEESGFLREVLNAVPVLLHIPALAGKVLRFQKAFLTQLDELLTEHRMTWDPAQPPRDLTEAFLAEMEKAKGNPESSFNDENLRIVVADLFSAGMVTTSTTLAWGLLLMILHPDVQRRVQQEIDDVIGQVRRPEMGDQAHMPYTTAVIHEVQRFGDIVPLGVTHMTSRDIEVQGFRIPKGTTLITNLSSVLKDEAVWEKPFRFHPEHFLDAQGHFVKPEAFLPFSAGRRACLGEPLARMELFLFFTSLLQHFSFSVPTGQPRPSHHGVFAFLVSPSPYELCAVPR

With `N#CC1(c2ccc(NC(=O)c3cccnc3NCc3ccncc3)cc2)CCCC1` [Rivoceranib, N-[4-(1-cyanocyclopentyl)phenyl]-2-{[(pyridin-4-yl)methyl]amino} pyridine-3-carboxamide] the tolerability ([1]; 200 mg single dose (freebase), healthy subjects and subjects with mild and moderate hepatic impairment) was “well tolerated”, the “subjects with treatment-emergent adverse events (TEAEs)” value ([1]; 200 mg single dose, 27 subjects overall, both in the Mild hepatic impairment group) was 2 (7.4%) subjects and the “laboratory, ECG, physical examination abnormalities” value ([1]; 200 mg single dose, all groups) was “no clinically significant laboratory, ECG, or physical examinations abnormalities”. The “treatment emergent SAEs, TEAEs leading to discontinuation, deaths” value ([1]; 200 mg single dose, all groups) was “No treatment emergent serious adverse events (SAEs), TEAEs leading to discontinuation, or deaths”, the “rivoceranib consumed at 60 minute incubation” value (from here on “rivoceranib consumed”) (CYP2B6; CYP2B6) was “less than 10%” and the “% Remaining at 60 minute incubation” value (CYP2B6; Recombinant CYP2B6, 5 μM) was 96.3%. For the same compound, the CLINT (CYP2B6; Recombinant CYP2B6, 5 μM) was 0.020 μL/minunte/mg, the half-life at 5 µM (CYP2B6; human, Recombinant CYP2B6, 5 μM, read-out: t½) was 5.73 h and the “rivoceranib consumed” value (CYP2D6; CYP2D6) was “more than 60%”. For the same compound, the “% Remaining at 60 minute incubation” value (CYP2D6; Recombinant CYP2D6, 5 μM) was 34.9%, the CLINT (CYP2D6; Recombinant CYP2D6, 5 μM) was 0.587 μL/minunte/mg and the half-life at 5 µM (CYP2D6; human, Recombinant CYP2D6, 5 μM, read-out: t½) was 0.787 h. The “rivoceranib consumed” value (CYP2C19; CYP2C19) was “less than 10%”, the “% Remaining at 60 minute incubation” value (CYP2C19; Recombinant CYP2C19, 5 μM) was 98.9% and the CLINT (CYP2C19; Recombinant CYP2C19, 5 μM) was 0.057 μL/minunte/mg. For the same compound, the half-life at 5 µM (CYP2C19; human, Recombinant CYP2C19, 5 μM, read-out: t½) was 8.05 h, the “rivoceranib consumed” value (CYP1A2; CYP1A2) was “less than 10%” and the “% Remaining at 60 minute incubation” value (CYP1A2; Recombinant CYP1A2, 5 μM) was 94.7%. For the same compound, the CLINT (CYP1A2; Recombinant CYP1A2, 5 μM) was 0.041 μL/minunte/mg, the half-life at 5 µM (CYP1A2; human, Recombinant CYP1A2, 5 μM, read-out: t½) was 11.2 h and the plasma protein binding (plasma protein) was 97%. The “rivoceranib consumed” value (CYP3A4; CYP3A4) was “more than 60%”, the “% Remaining at 60 minute incubation” value (CYP3A4; Recombinant CYP3A4, 5 μM) was 37.6% and the CLINT (CYP3A4; Recombinant CYP3A4, 5 μM) was 0.704 μL/minunte/mg. For the same compound, the half-life at 5 µM (CYP3A4; human, Recombinant CYP3A4, 5 μM, read-out: t½) was 0.657 h.
